Like-named read-outs stand apart in the source and are kept apart here.
Experiments:
Colibacillus = experiment: microbe, parasite or virus in culture; type: cell-based; conditions: read-out: Efficiency of the preparation, % Colibacillus
Staphylococcus aureus = experiment: microbe, parasite or virus in culture; type: cell-based; conditions: read-out: Efficiency of the preparation, % Staphylococcus aureus
[1] = system: Infectant of poliomyelitis
ascarid ovi = experiment: animal or person; type: in vivo, pig.ascarid; conditions: read-out: Death of ascarid ovi, % Tests laboratory
Alternaria radicina = type: cell-based
Aspergillus niger = type: cell-based
Fusarium oxysporum = type: cell-based
Helminthosporum saturem = type: cell-based
Venturia inaequalis = type: cell-based
Penicillium sporum = type: cell-based
Candida albicans = experiment: microbe, parasite or virus in culture; type: cell-based
Candida tropicalis = experiment: microbe, parasite or virus in culture; type: cell-based
Virus of hepatitis B = experiment: microbe, parasite or virus in culture; conditions: 0.5 h, read-out: Death of viruses (%) at 30 minutes exposure, Virus of hepatitis B
houseflies [2] = conditions: house fly, in vivo
[3] = in vivo; cited from earlier work
[4] = system: virus of influenza, type A, (H1N1); experiment: microbe, parasite or virus in culture; conditions: H1N1, 0.5 h, read-out: Death of viruses (%) at 30 minutes exposure, Virus of influenza A
houseflies [5] = experiment: whole plant or invertebrate; conditions: Musca domestica
[6] = 2 h, read-out: Death of test fungi, % to the control, Candida albicans 2 hrs
[7] = 20 h, read-out: Death of test fungi, % to the control, Candida albicans 20 hrs
[8] = 2 h, read-out: Death of test fungi, % to the control, Candida tropicalis 2 hrs
[9] = 20 h, read-out: Death of test fungi, % to the control, Candida tropicalis 20 hrs
[10] = 72 h, read-out: Death of flies, % after 72 hours

SMILES	killing at 0.5 % (Colibacillus) [%]	killing at 0.5 % (Staphylococcus aureus) [%]	Death of viruses (%) at 60 minutes exposure, Infectant of poliomyelitis [1] [%]	killing at 3 % (ascarid ovi) [%]	Mycelium growth inhibition, % to the control, Alternaria radicina (Alternaria radicina) [%]	Mycelium growth inhibition, % to the control, Aspergillus niger (Aspergillus niger) [%]	Mycelium growth inhibition, % to the control, Fusarium oxisporum (Fusarium oxysporum) [%]	Mycelium growth inhibition, % to the control, Helminthosporum saturem (Helminthosporum saturem) [%]	Mycelium growth inhibition, % to the control, Venturia inaequalis (Venturia inaequalis) [%]	Mycelium growth inhibition, % to the control, Penicillium sporum (Penicillium sporum) [%]	killing at 0.05 % (Candida albicans; [6]) [%]	killing at 0.05 % (Candida albicans; [7]) [%]	killing at 0.05 % (Candida tropicalis; [8]) [%]	killing at 0.05 % (Candida tropicalis; [9]) [%]	killing at 1 % (Virus of hepatitis B) [%]	further results
O=[N+]([O-])c1ccc(C(O)C(CCl)NP(=O)(O)O)cc1 (stereo not drawn) [Example 2, 1-para-nitrophenyl-1--chloro-3-propanolamidophosphoric acid]	100	100	60	100	60	100	69	88	64	68	99	100	90	100		
O=[N+]([O-])c1ccc(C(Cl)C(CCl)NP(=O)(O)O)cc1 (stereo not drawn) [Example 3]	100	100	80	100	80	100	68	100	98	100	100	100	99	100	100	
COP(=O)(OC)C(O)C(Cl)(Cl)Cl (stereo not drawn) [Known insecticidal preparation, O,O-Dimethyl-(1-hydroxy-2,2,2-tri-chloroethyl)-phosphonate]																Death of flies, % Tests laboratory (houseflies [2]): 90%; Death of flies, % after 48 hours (houseflies [2]; 48 h): 81%; Death of flies, % after 72 hours (houseflies [2]; 72 h): 84%; LD50 [3]: 225 - 1,200 mg/kg
O=S(=O)(NCl)c1ccccc1 [Known preparation]															50	killing at 1 % [4]: 25%; mortality at 3 % (houseflies [5]; 24 h, read-out: Death of flies, % after 24 hours): 86%; mortality at 2 % (houseflies [5]; 48 h, read-out: Death of flies, % after 48 hours): 81%; mortality at 2 % (houseflies [5]; [10]): 84%; mortality at 3 % (houseflies [5]; [10]): 92%

Source: patent publication EP0404945A1 (priority 1989, dated 1990)
